Experimental data from patent US9062284B2, “Uses and detection of herbicide resistance genes for resistance to aryloxyalkanoate herbicides” (Dow ArgoSciences LLC, priority 2007, dated 2015).

Key:
[1] = test system: PAT/Cry1F-transformed Arabidopsis (auxin-sensitive control); assay: Herbicide response of PAT/Cry1F transformed control Arabidopsis; assay type: in vivo, Arabidopsis thaliana; conditions: for % Injury 20-40% (individuals) / % Injury <20% (individuals) / % Injury >40% (individuals) / % Injury Ave: 14 DAT
Source text: (§1) T1 plants were then randomly assigned to various rates of 2,4-D. For Arabidopsis, 50 g ae/ha 2,4-D is an effective dose to distinguish sensitive plants from ones with meaningful levels of resistance. Elevated rates were also applied to determine relative levels of resistance (280, 560, 1120, or 2240 g ae/ha). Tables 11 and 12 show comparisons drawn to an aryloxyalkanoate herbicide resistance gene (AAD-12 (v1)) previously described in PCT/US2006/042133.
(§2) All auxin herbicide applications were made using the DeVilbiss sprayer as described above to apply 703 L/ha spray volume (0.4 ml solution/3-inch pot) or applied by track sprayer in a 187 L/ha spray volume. 2,4-D used was either technical grade (Sigma, St. Louis, Mo.) dissolved in DMSO and diluted in water (<1% DMSO final concentration) or the commercial dimethylamine salt formulation (456 g ae/L, NuFarm, St Joseph, Mo.). Dichlorprop used was commercial grade formulated as potassium salt of R-dichlorprop (600 g ai/L, AH Marks). As herbicide rates increased beyond 800 g ae/ha, the pH of the spray solution became exceedingly acidic, burning the leaves of young, tender Arabidopsis plants and complicating evaluation of the primary effects of the herbicides.
(§3) The first Arabidopsis transformations were conducted using AAD-13 (v1) (plant optimized gene). T1 transformants were first selected from the background of untransformed seed using a glufosinate selection scheme. Over 160,000 T1 seed were screened and 238 glufosinate resistant plants were identified (PAT gene), equating to a transformation/selection frequency of 0.15% which lies in the normal range of selection frequency of constructs where PAT+Liberty are used for selection. T1 plants selected above were subsequently transplanted to individual pots and sprayed with various rates of commercial aryloxyalkanoate herbicides. Table 11 compares the response of AAD-13 (v1) and control genes to impart 2,4-D resistance to Arabidopsis T1 transformants. Response is presented in terms of % visual injury 2 WAT. […] An arithmetic mean and standard deviation is presented for each treatment. The range in individual response is also indicated in the last column for each rate and transformation. PAT/Cry1F-transformed Arabidopsis served as an auxin-sensitive transformed control. The AAD-13 (v1) gene imparted herbicide resistance to individual T1 Arabidopsis plants. Within a given treatment, the level of plant response varied greatly and can be attributed to the fact each plant represents an independent transformation event. Of important note, at each 2,4-D rate tested, there were individuals that were unaffected while some were severely affected. […] At high rates the spray solution becomes highly acidic unless buffered therefore some of the injury may be attributed to the acidity of the spray solution. Arabidopsis grown mostly in the growth chamber has a very thin cuticle and severe burning effects can complicate testing at these elevated rates. Nonetheless, many individuals have survived 2,240 g ae/ha 2,4-D with little or no injury.
(§4) The ability of AAD-13 (v1) to provide resistance to other aryloxyalkanoate auxin herbicides in transgenic Arabidopsis was determined by foliar application of various substrates. T2 generation Arabidopsis seed was stratified, and sown into selection trays much like that of Arabidopsis (Example 6.4). A transformed-control line containing PAT and the insect resistance gene Cry1F was planted in a similar manner. Seedlings were transferred to individual 3-inch pots in the greenhouse. All plants were sprayed with the use of a track sprayer set at 187 L/ha. The plants were sprayed with a range of pyridyloxyacetate herbicides: 200-800 g ae/ha triclopyr (Garlon 3A, Dow AgroSciences) and 200-800 g ae/ha fluoroxypyr (Starane, Dow AgroSciences). […]

[2] = test system: Homozygous AAD-12 (v1) gene T4 Arabidopsis plants; assay: Herbicide response of homozygous AAD-12 (v1) T4 Arabidopsis; assay type: in vivo, Arabidopsis thaliana; conditions: for % Injury 20-40% (individuals) / % Injury <20% (individuals) / % Injury >40% (individuals) / % Injury Ave: 14 DAT
Source text: as §1, §2, §3, §4

[3] = test system: KY160 untransformed tobacco; assay: Herbicide response of untransformed KY160 tobacco; assay type: in vivo, Nicotiana tabacum; conditions: for plant response to foliar applied auxinic herbicides (injury): 14 days after application; for % Injury 20-40% (individuals) / % Injury <20% (individuals) / % Injury >40% (individuals) / % Injury Ave: 2 WAT
Source text: (§5) Surviving T1 plants were then randomly assigned to various rates of 2,4-D. For tobacco, 140 g ae/ha 2,4-D is an effective dose to distinguish sensitive plants from ones with meaningful levels of resistance. Elevated rates were also applied to determine relative levels of resistance (140, 560, or 2240 g ae/ha).
(§6) All auxin herbicide applications were applied by track sprayer in a 187 L/ha spray volume. 2,4-D used was the commercial dimethylamine salt formulation (456 g ae/L, NuFarm, St Joseph, Mo.). Some T1 individuals were subjected to alternative commercial herbicides instead of a phenoxy auxin. One point of interest was determining whether the pyridyloxyacetate auxin herbicides, triclopyr and fluoroxypyr, could be effectively degraded in planta. Herbicides were applied to T1 plants with use of a track sprayer in a 187 L/ha spray volume.
(§7) T1 transformants were first selected from the background of untransformed plants using a 2,4-D selection scheme. Table 15 compares the response of AAD-13 (v1) and control genes to impart 2,4-D resistance to tobacco T1 transformants. Response is presented in terms of % visual injury 2 WAT. […] An arithmetic mean and standard deviation is presented for each treatment. The range in individual response is also indicated in the last column for each rate and transformation. KY160 untransformed tobacco served as an auxin-sensitive control. The AAD-13 (v1) gene imparted herbicide resistance to individual T1 tobacco plants.
(§8) The ability of AAD-13 (v1) to provide resistance to other aryloxyalkanoate auxin herbicides in transgenic tobacco was determined by foliar application of various substrates. Extra T1 generation plants following the T1 progeny testing were sprayed with the use of a track sprayer set at 187 L/ha. The plants were sprayed with a range of pyridyloxyacetate herbicides: 140-1120 g ae/ha triclopyr (Garlon 3A, Dow AgroSciences) and 280-1120 g ae/ha fluoroxypyr (Starane, Dow AgroSciences). All applications were formulated in water. Each treatment was replicated 3 times. Plants were evaluated at 3 and 14 days after treatment.

[4] = test system: AAD-13 (v1) gene T1 tobacco plants; assay: Herbicide response of AAD-13 (v1) T1 tobacco; assay type: in vivo, Nicotiana tabacum; conditions: for plant response to foliar applied auxinic herbicides (injury): 14 days after application, line pDAB4114[1]003.006; for % Injury 20-40% (individuals) / % Injury <20% (individuals) / % Injury >40% (individuals) / % Injury Ave: 2 WAT
Source text: as §5, §6, §7, §8

Nc1c(Cl)c(F)nc(OCC(=O)O)c1Cl [fluoroxypyr]
Ave. % Injury 14DAT ([1]; 200 g ae/ha foliar-applied): 100%
Ave. % Injury 14DAT ([1]; 400 g ae/ha foliar-applied): 100%
Ave. % Injury 14DAT ([1]; 800 g ae/ha foliar-applied): 100%
Ave. % Injury 14DAT ([2]; 200 g ae/ha foliar-applied): 48%
Ave. % Injury 14DAT ([2]; 400 g ae/ha foliar-applied): 55%
Ave. % Injury 14DAT ([2]; 800 g ae/ha foliar-applied): 60%
plant response to foliar applied auxinic herbicides (injury) ([3]; 280 g ae/ha): 100.0
plant response to foliar applied auxinic herbicides (injury) ([3]; 560 g ae/ha): 100.0
plant response to foliar applied auxinic herbicides (injury) ([3]; 1120 g ae/ha): 100.0
plant response to foliar applied auxinic herbicides (injury) ([4]; 280 g ae/ha): 7.0
plant response to foliar applied auxinic herbicides (injury) ([4]; 560 g ae/ha): 25.0
plant response to foliar applied auxinic herbicides (injury) ([4]; 1120 g ae/ha): 37.0
rate up to which significant tolerance is provided ([4]; foliar application, T1 tobacco): up to 1120 g ae/ha

CNC.O=C(O)COc1ccc(Cl)cc1Cl [2,4-D DMA]
% Injury 20-40% (individuals) ([1]; 280 g ae/ha postemergence): 0
% Injury <20% (individuals) ([1]; 280 g ae/ha postemergence): 0
% Injury >40% (individuals) ([1]; 280 g ae/ha postemergence): 20
% Injury Ave ([1]; 280 g ae/ha postemergence): 100%
% Injury 20-40% (individuals) ([1]; 560 g ae/ha postemergence): 0
% Injury <20% (individuals) ([1]; 560 g ae/ha postemergence): 0
% Injury >40% (individuals) ([1]; 560 g ae/ha postemergence): 20
% Injury Ave ([1]; 560 g ae/ha postemergence): 100%
% Injury 20-40% (individuals) ([1]; 1120 g ae/ha postemergence): 0
% Injury <20% (individuals) ([1]; 1120 g ae/ha postemergence): 0
% Injury >40% (individuals) ([1]; 1120 g ae/ha postemergence): 20
% Injury Ave ([1]; 1120 g ae/ha postemergence): 100%
% Injury 20-40% (individuals) ([1]; 2240 g ae/ha postemergence): 0
% Injury <20% (individuals) ([1]; 2240 g ae/ha postemergence): 0
% Injury >40% (individuals) ([1]; 2240 g ae/ha postemergence): 20
% Injury Ave ([1]; 2240 g ae/ha postemergence): 100%
% Injury 20-40% (individuals) ([2]; 280 g ae/ha postemergence): 0
% Injury <20% (individuals) ([2]; 280 g ae/ha postemergence): 20
% Injury >40% (individuals) ([2]; 280 g ae/ha postemergence): 0
% Injury Ave ([2]; 280 g ae/ha postemergence): 0%
% Injury 20-40% (individuals) ([2]; 560 g ae/ha postemergence): 0
% Injury <20% (individuals) ([2]; 560 g ae/ha postemergence): 20
% Injury >40% (individuals) ([2]; 560 g ae/ha postemergence): 0
% Injury Ave ([2]; 560 g ae/ha postemergence): 1%
% Injury 20-40% (individuals) ([2]; 1120 g ae/ha postemergence): 0
% Injury <20% (individuals) ([2]; 1120 g ae/ha postemergence): 20
% Injury >40% (individuals) ([2]; 1120 g ae/ha postemergence): 0
% Injury Ave ([2]; 1120 g ae/ha postemergence): 2%
% Injury 20-40% (individuals) ([2]; 2240 g ae/ha postemergence): 3
% Injury <20% (individuals) ([2]; 2240 g ae/ha postemergence): 16
% Injury >40% (individuals) ([2]; 2240 g ae/ha postemergence): 1
% Injury Ave ([2]; 2240 g ae/ha postemergence): 13%
% Injury 20-40% (individuals) ([3]; 140 g ae/ha postemergence): 0
% Injury <20% (individuals) ([3]; 140 g ae/ha postemergence): 0
% Injury >40% (individuals) ([3]; 140 g ae/ha postemergence): 3
% Injury Ave ([3]; 140 g ae/ha postemergence): 80.0%
% Injury 20-40% (individuals) ([3]; 560 g ae/ha postemergence): 0
% Injury <20% (individuals) ([3]; 560 g ae/ha postemergence): 0
% Injury >40% (individuals) ([3]; 560 g ae/ha postemergence): 3
% Injury Ave ([3]; 560 g ae/ha postemergence): 88.0%
% Injury 20-40% (individuals) ([3]; 2240 g ae/ha postemergence): 0
% Injury <20% (individuals) ([3]; 2240 g ae/ha postemergence): 0
% Injury >40% (individuals) ([3]; 2240 g ae/ha postemergence): 3
% Injury Ave ([3]; 2240 g ae/ha postemergence): 92.0%
% Injury 20-40% (individuals) ([4]; 140 g ae/ha postemergence): 0
% Injury <20% (individuals) ([4]; 140 g ae/ha postemergence): 3
% Injury >40% (individuals) ([4]; 140 g ae/ha postemergence): 0
% Injury Ave ([4]; 140 g ae/ha postemergence): 0.0%
% Injury 20-40% (individuals) ([4]; 560 g ae/ha postemergence): 0
% Injury <20% (individuals) ([4]; 560 g ae/ha postemergence): 3
% Injury >40% (individuals) ([4]; 560 g ae/ha postemergence): 0
% Injury Ave ([4]; 560 g ae/ha postemergence): 0.0%
% Injury 20-40% (individuals) ([4]; 2240 g ae/ha postemergence): 0
% Injury <20% (individuals) ([4]; 2240 g ae/ha postemergence): 3
% Injury >40% (individuals) ([4]; 2240 g ae/ha postemergence): 0
% Injury Ave ([4]; 2240 g ae/ha postemergence): 2.0%

C[C@@H](Oc1ccc(Cl)cc1Cl)C(=O)O [R-dichloroprop, R-dichlorprop]
% Injury 20-40% (individuals) ([2]; 800 g ae/ha postemergence): 0
% Injury <20% (individuals) ([2]; 800 g ae/ha postemergence): 0
% Injury >40% (individuals) ([2]; 800 g ae/ha postemergence): 20
% Injury Ave ([2]; 800 g ae/ha postemergence): 100%

O=C(O)COc1nc(Cl)c(Cl)cc1Cl [triclopyr]
Ave. % Injury 14DAT ([1]; 200 g ae/ha foliar-applied): 100%
Ave. % Injury 14DAT ([1]; 400 g ae/ha foliar-applied): 100%
Ave. % Injury 14DAT ([1]; 800 g ae/ha foliar-applied): 100%
Ave. % Injury 14DAT ([2]; 200 g ae/ha foliar-applied): 25%
Ave. % Injury 14DAT ([2]; 400 g ae/ha foliar-applied): 33%
Ave. % Injury 14DAT ([2]; 800 g ae/ha foliar-applied): 79%
plant response to foliar applied auxinic herbicides (injury) ([3]; 280 g ae/ha): 82.0
plant response to foliar applied auxinic herbicides (injury) ([3]; 560 g ae/ha): 88.0
plant response to foliar applied auxinic herbicides (injury) ([3]; 1120 g ae/ha): 92.0
plant response to foliar applied auxinic herbicides (injury) ([4]; 280 g ae/ha): 53.0
plant response to foliar applied auxinic herbicides (injury) ([4]; 560 g ae/ha): 65.0
plant response to foliar applied auxinic herbicides (injury) ([4]; 1120 g ae/ha): 75.0
